12 compounds from ChEMBL document CHEMBL1142579, “Antineoplastic agents. 527. Synthesis of 7-deoxynarcistatin, 7-deoxy-trans-dihydronarcistatin, and trans-dihydronarcistatin 1(1)” (J Nat Prod, 2005) can be followed below.

In general, GI50 refers to the concentration at which growth is held to half of that of the control. Read a low GI50 as more potent growth inhibition. One may read the solubility as how much of the substance goes into solution per volume. A higher solubility goes with much dissolved substance.

For one series, the system named is DU-145. Briefly: Cytotoxicity against human DU145 cells. Type of series: functional.
The next series concerns NCI-H460. The experiment in a line: Cytotoxicity against human NCI-H460 cells. Type of series: functional.
The test system of the next series is SF-268. The experiment in a line: Cytotoxicity against human SF-268 cells. Type of series: functional.
Series [1] in a line: Aqueous solubility at 25 degC. Type of series: physicochemical. The conditions noted are these: water.
The next series has as its system KM-20L2. Briefly: Cytotoxicity against human KM20L2 cells. In kind it is functional.
In another series the test system is MCF7. Briefly: Cytotoxicity against human MCF7 cells. Type of series: functional.
Another series concerns P388. Briefly: Cytotoxicity against mouse P388 cells. The conditions noted are these: read-out: ED50 (the source's name). Type of series: functional.
In another series the test system is BXPC-3. Briefly: Cytotoxicity against human […] cells. Type of series: functional.

Converted amounts (≈) assume the structure as drawn.

For `O=C1N[C@H]2[C@H](O)[C@H](O)[C@@H](O)C[C@@H]2c2cc3c(cc21)OCO3`, the GI50 was determined as 0.04 µg/mL (≈ 0.136 µM) with DU-145; 0.043 µg/mL (≈ 0.147 µM) with NCI-H460; 0.059 µg/mL (≈ 0.201 µM) in the series on SF-268; 0.051 µg/mL (≈ 0.174 µM) in the series on KM-20L2; 0.034 µg/mL (≈ 0.116 µM) in the series with MCF7; 0.046 µg/mL (≈ 0.157 µM) in the series with BXPC-3. In addition, the solubility in series [1] was less than 1000 µg/mL. The EC50 with P388 stood at 0.029 µg/mL (≈ 0.0989 µM).
Take `O=C1N[C@H]2[C@H](O)[C@H](O)[C@@H](O)C[C@@H]2c2cc3c(c(O)c21)OCO3`: the GI50 was 0.0066 µg/mL (≈ 0.0213 µM) in the series on DU-145; 0.0092 µg/mL (≈ 0.0297 µM) in the series on NCI-H460; 0.02 µg/mL (≈ 0.0647 µM) in the series with SF-268; 0.015 µg/mL (≈ 0.0485 µM) with KM-20L2; 0.0053 µg/mL (≈ 0.0171 µM) in the series with MCF7; 0.012 µg/mL (≈ 0.0388 µM) with BXPC-3. The solubility in series [1] was less than 1000 µg/mL. Also, in the series with P388, the EC50 turned out to be 0.0024 µg/mL (≈ 0.00776 µM).
In the case of `O=C1N[C@@H]2C(=C[C@H](O)[C@@H](O)[C@H]2O)c2cc3c(cc21)OCO3`, the GI50 with DU-145 was 0.051 µg/mL (≈ 0.175 µM); with NCI-H460 it was 0.053 µg/mL (≈ 0.182 µM); in the series with SF-268, 0.12 µg/mL (≈ 0.412 µM); in the series with KM-20L2, 0.084 µg/mL (≈ 0.288 µM); in the series with MCF7 it was 0.046 µg/mL (≈ 0.158 µM); in the series on BXPC-3, 0.07 µg/mL (≈ 0.24 µM). In series [1], this compound had a solubility of less than 1000 µg/mL. Besides, in the series with P388, the EC50 came out at 0.019 µg/mL (≈ 0.0652 µM).
With `O=C1N[C@H]2[C@@H]3OP(=O)([O-])O[C@@H]3[C@@H](O)C[C@@H]2c2cc3c(c(O)c21)OCO3.[Na+]`, the GI50 was 5.2 µg/mL in the series with DU-145; 7.8 µg/mL in the series on NCI-H460; 8.8 µg/mL in the series with SF-268; 9.6 µg/mL with KM-20L2; 4.6 µg/mL in the series with MCF7; 5.6 µg/mL with BXPC-3. In series [1], this compound yielded a solubility of more than 10000 µg/mL. Also, the EC50 in the series on P388 is 0.88 µg/mL.
On to `O=C1N[C@H]2[C@@H]3OP(=O)([O-])O[C@@H]3[C@@H](O)C[C@@H]2c2cc3c(cc21)OCO3.[K+]`, for which the GI50 in the series on DU-145, in the series on NCI-H460, in the series with SF-268, in the series on KM-20L2, in the series on MCF7 and in the series on BXPC-3 was more than 1 µg/mL throughout. In series [1], this compound yielded a solubility of more than 5000 µg/mL. Besides, in the series on P388, the EC50 was determined as 1.7 µg/mL.
Consider `O=C1N[C@H]2[C@@H]3OP(=O)([O-])O[C@@H]3[C@@H](O)C[C@@H]2c2cc3c(cc21)OCO3.[Na+]`, for which the concentration for 50% growth inhibition (GI50) with DU-145 is more than 10 µg/mL; in the series on NCI-H460 it was more than 10 µg/mL; with SF-268 it was more than 10 µg/mL; with KM-20L2, more than 10 µg/mL; in the series on MCF7 it was 7.2 µg/mL; in the series with BXPC-3, more than 10 µg/mL. The compound further showed a solubility in series [1] of more than 10000 µg/mL. In addition, the EC50 with P388 was 1.6 µg/mL.
In the case of `O=C1N[C@H]2[C@@H]3OP(=O)([O-])O[C@@H]3[C@@H](O)C[C@@H]2c2cc3c(cc21)OCO3.[Li+]`, the GI50 with DU-145, with NCI-H460, in the series on SF-268, in the series on KM-20L2, with MCF7 and in the series with BXPC-3 was more than 1 µg/mL in each case. Further, the solubility in series [1] is more than 5000 µg/mL. For the same compound, the EC50 in the series with P388 amounted to 0.39 µg/mL.
Take `O=C1N[C@@H]2C(=C[C@H](O)[C@H]3OP(=O)([O-])O[C@H]32)c2cc3c(cc21)OCO3.[Na+]`: the concentration for 50% growth inhibition (GI50) with DU-145 came out at 3.9 µg/mL; in the series on NCI-H460, 4.7 µg/mL; in the series on SF-268 it was 6.3 µg/mL; in the series on KM-20L2, 5.6 µg/mL; in the series with MCF7 it was 4 µg/mL; in the series with BXPC-3 it was 5.3 µg/mL. Further, the solubility in series [1] is more than 190000 µg/mL. Besides, the EC50 in the series on P388 was 1.7 µg/mL.
Regarding `O=C1N[C@@H]2C(=C[C@H](O)[C@H]3OP(=O)([O-])O[C@H]32)c2cc3c(cc21)OCO3.[Li+]`, the 50% growth inhibitory concentration (GI50) in the series on DU-145, in the series on NCI-H460, with SF-268, with KM-20L2, in the series with MCF7 and in the series with BXPC-3 was more than 1 µg/mL throughout. Besides, in series [1], the solubility is more than 10000 µg/mL. Also, the EC50 in the series with P388 came out at 0.42 µg/mL.
For `O=C1N[C@H]2[C@@H]3OP(=O)([O-])O[C@@H]3[C@@H](O)C[C@@H]2c2cc3c(c(O)c21)OCO3.[K+]`, the GI50 in the series with DU-145 is 0.54 µg/mL; with NCI-H460, more than 1 µg/mL; in the series with SF-268, more than 1 µg/mL; in the series on KM-20L2, more than 1 µg/mL; in the series with MCF7, 0.64 µg/mL; in the series with BXPC-3, more than 1 µg/mL. The solubility in series [1] is more than 1000 µg/mL. The EC50 in the series with P388 was 0.35 µg/mL.
With `O=C1N[C@H]2[C@@H]3OP(=O)([O-])O[C@@H]3[C@@H](O)C[C@@H]2c2cc3c(c(O)c21)OCO3.[Li+]`, the GI50 in the series with DU-145, in the series on NCI-H460, with SF-268, with KM-20L2, in the series with MCF7 and with BXPC-3 was more than 1 µg/mL in each case. The solubility in series [1] is more than 1000 µg/mL. The EC50 in the series with P388 amounted to 0.26 µg/mL.
Turning to `O=C1N[C@@H]2C(=C[C@H](O)[C@H]3OP(=O)([O-])O[C@H]32)c2cc3c(cc21)OCO3.[K+]`, the GI50 in the series with DU-145, in the series on NCI-H460, with SF-268, with KM-20L2, in the series on MCF7 and with BXPC-3 was more than 1 µg/mL in each case. The solubility in series [1] is more than 10000 µg/mL. The EC50 in the series on P388 amounted to 1.4 µg/mL.
